Experimental findings from PubChem BioAssay AID1996 are described below.

Values after ≈ are worked out from the molar mass of the structure shown. Bounds are passed on as bounds.

For this data set the following is noted: buffer; pH 7.4; 200.0 µM.
One may read the kinetic solubility as the concentration staying in solution when a stock, usually in DMSO, is diluted into the medium. For the compound `O=C1/C(=C/c2ccccn2)SC(=S)N1Cc1ccccc1`, the kinetic solubility is less than 0.3 µg/mL.
Consider `C=CCn1c(O)c(N=O)c2ccccc21`, for which the kinetic solubility is greater than 30.3 µg/mL.
`Cc1ccc2nc(COc3ccc(Cl)cc3)cc(=O)n2c1` gave a solubility (kinetic) of 0.5 µg/mL (≈ 1.66 µM).
In the case of `COc1ccc(Nc2nc(C)nc3c2oc2ccccc23)c(OC)c1` it was less than 0.2 µg/mL; in that of `CN1C(=S)SC(/[N+]([O-])=C/c2ccc(Cl)cc2)C1(C)C` (centres undefined), 15.7 µg/mL (≈ 49.9 µM).
For `O=C(NC(=S)N1CCN(C/C=C/c2ccccc2)CC1)c1ccco1` the value was greater than 53.3 µg/mL; for `Cc1cc(=O)[nH]c(SCc2ccccc2)n1`, greater than 34.8 µg/mL.
For `CCOc1ccccc1NC(=O)NC1CCCCCCC1` the value was 0.4 µg/mL (≈ 1.38 µM); for `CC(NCc1ccccc1Cl)C(=O)Nc1ccc(C#N)cc1` (centres undefined), 44.5 µg/mL (≈ 142 µM).
`Nc1ccc(NC(=O)c2cccs2)cc1` showed a kinetic solubility greater than 32.7 µg/mL.
In the case of `COc1ccccc1CN1CCCCCC1.O=C(O)C(=O)O` it was 40.8 µg/mL.
For `O=C(COC(=O)CCC1CCCC1)Nc1ccc(F)cc1` the value was 5.9 µg/mL (≈ 20.1 µM); for `O=S(=O)(NCCN1CCOCC1)c1ccc2ccccc2c1`, greater than 48.1 µg/mL; for `O=C(Nc1nnc2n1CCS2)c1ccco1`, greater than 35.4 µg/mL.
`COc1ccc(/C=C2\SC(=N)N(c3ccc(F)cc3)C2=O)cc1` had a solubility (kinetic) of less than 0.4 µg/mL.
`NC(=O)c1cc(-c2cccnc2)nc2ccc(Br)cc12` gave a kinetic solubility of 2.2 µg/mL (≈ 6.7 µM).
For `N#C/C=C/N1CCN(C(=O)c2ccco2)CC1` the value was greater than 34.7 µg/mL.
As to `CC(=O)c1ccc(OC(C)c2nc3ccccc3s2)cc1` (centres undefined), the kinetic solubility was 13.1 µg/mL (≈ 44.1 µM).
The compound `Cc1c(Cl)c([N+](=O)[O-])nn1CC(=O)NCCCN1CCOCC1` yielded a solubility (kinetic) greater than 51.9 µg/mL.
In turn, `CCOC(=O)N1CCN(S(=O)(=O)c2ccc(Cl)cc2)CC1` gave a kinetic solubility of 48.4 µg/mL (≈ 145 µM).
As for `Cc1cc(=O)cc(C)n1-c1ccc(Cl)cc1`, the kinetic solubility was 34.8 µg/mL (≈ 149 µM).
In the case of `Oc1ccc(Br)cc1C1Nc2ccccc2S1` (centres undefined) it was less than 0.7 µg/mL; in that of `S=C(NCc1ccccc1)N1CCN(C2CCCCC2)CC1`, greater than 47.6 µg/mL; in that of `Cc1cc(C)c(C(=O)N2CCC3(CC2)OCCO3)c(C)c1`, greater than 43.4 µg/mL.
`COc1cccc2cc(C(=O)NC3CC4CCC3C4)oc12` (centres undefined) returned a solubility (kinetic) of 31.6 µg/mL (≈ 111 µM).
The compound `Cc1c(C(=O)N2CCN(c3ccccn3)CC2)oc2c(F)cccc12` registered a solubility (kinetic) of 33.2 µg/mL (≈ 97.8 µM).
Compound `Cc1cc(NC(=O)COc2ccc([N+](=O)[O-])cc2)no1` gave a kinetic solubility of 5.8 µg/mL (≈ 20.9 µM).
In the case of `c1ccc2nc3c(cc2c1)CCCCC3` it was 3.4 µg/mL (≈ 17.2 µM); in that of `O=C(C1COc2ccccc2O1)N1CCCCC1` (centres undefined), greater than 37.1 µg/mL.
For `O=C(c1cc2cc(Cl)ccc2[nH]1)N1CCC2(CC1)OCCO2` the value was 16 µg/mL (≈ 49.9 µM); for `CCCc1cc(=O)c2ccc(OC/C(C)=N/O)cc2o1`, 38.3 µg/mL (≈ 139 µM).
In the case of `CCOC(=O)C1=C(c2ccccc2)NC(=O)NC1c1cccc(OC)c1OC` (centres undefined) it was greater than 57.4 µg/mL; in that of `O=C(O)C(=O)O.c1ccc2cc(OCCCn3ccnc3)ccc2c1`, greater than 51.4 µg/mL.
As for `CN(C)/C=C/c1[nH]c(=O)[nH]c(=O)c1[N+](=O)[O-]`, the solubility (kinetic) is greater than 33.9 µg/mL.
Consider `CCOC(=O)Cn1cc(C(=O)C(C)(C)C)c2ccccc21`, for which the kinetic solubility was greater than 43.1 µg/mL.
For `O=C(Nc1ccc2c(c1)OCCO2)c1cccc(Cl)c1Cl` the value was 35.5 µg/mL (≈ 110 µM); for `COc1ccc(OCC(=O)Nc2ccc(N3CCC(C)CC3)cc2)cc1`, less than 0.4 µg/mL; for `NS(=O)(=O)c1ccc(NS(=O)(=O)c2ccc(Br)cc2)cc1`, greater than 58.7 µg/mL.
For `CCCOc1ccccc1/C=C(\C#N)C(=O)Nc1cccc(C)n1` the value was 5.1 µg/mL (≈ 15.9 µM); for `N#Cc1ccc(C2N=C(c3ccccc3)NO2)cc1` (centres undefined), 15.3 µg/mL (≈ 61.4 µM); for `COc1ccc2[nH]c(C)c(-c3csc(N)n3)c2c1`, 31.3 µg/mL (≈ 121 µM).
On to `Cl.Nc1nc(N)c2[nH]c(-c3ccccc3)nc2n1`, for which the kinetic solubility is greater than 39.4 µg/mL.
In the case of `CCN(CC)c1ccc(N=Cc2c(O)n(CCc3ccc(OC)c(OC)c3)c(=O)[nH]c2=O)cc1` it was 9.5 µg/mL (≈ 20.4 µM); in that of `CCN(CC(=O)Nc1c(F)cccc1F)C(=O)CSc1ccc(F)cc1`, greater than 57.4 µg/mL; in that of `O=S(=O)(NCc1nc2ccccc2[nH]1)c1ccccc1`, greater than 43.1 µg/mL.
In the case of `O=C(COC(=O)c1ccc(S(=O)(=O)N2CCCC2)cc1)NCCc1ccc(F)cc1` it was 6.2 µg/mL (≈ 14.3 µM); in that of `CC1(C)C/C(=N\O)C(C(O)c2cccc([N+](=O)[O-])c2)C(C)(C)N1` (centres undefined), 40.4 µg/mL (≈ 126 µM).
As to `CC(=O)C1=C(O)C(=O)N(Cc2ccccc2)C1c1ccc(N(C)C)cc1` (centres undefined), the solubility (kinetic) was 51.6 µg/mL (≈ 147 µM).
For `Cc1cccc(N2N=C(C(=O)O)CCC2=O)c1` the value was greater than 34.8 µg/mL; for `O=C(CN1C(=O)NC2(CCCCC2)C1=O)Nc1ccc(F)cc1`, greater than 47.9 µg/mL; for `COc1ccccc1NC(=O)CC(c1ccc(F)cc1)c1ccco1` (centres undefined), 21.2 µg/mL (≈ 62.5 µM).
In turn, `COC(=O)c1c(NC(C)=O)sc(C(=O)Nc2ccccc2F)c1C` yielded a kinetic solubility of less than 0.4 µg/mL.
As to `NC(=O)COC(=O)c1ccc2noc(-c3ccccc3)c2c1`, the kinetic solubility was determined as 26.1 µg/mL (≈ 88.1 µM).
As to `N#C/C(=C\c1ccc2c(c1)OCO2)C(N)=S`, the solubility (kinetic) turned out to be 5.8 µg/mL (≈ 25 µM).
For `CC(=O)Nc1ccc(S(=O)(=O)NC2Cc3ccccc3C2)cc1` the value was 6.8 µg/mL (≈ 20.6 µM); for `Fc1cccc(/C=N/Nc2nccnc2Cl)c1`, greater than 37.6 µg/mL; for `Cc1cc(C)cc(NC(=O)C2CCN(C(=O)c3cccs3)CC2)c1`, greater than 51.4 µg/mL.
In the case of `Cc1ccc(CC2C(=O)N(c3ccccc3)C(=O)C2C)cc1` (centres undefined) it was 7.6 µg/mL (≈ 25.9 µM); in that of `Brc1ccc(CNc2ccc3ncccc3c2)cc1`, less than 0.3 µg/mL.
In turn, `O=C(Nc1ccc2nccnc2c1)Nc1ccccc1Cl` showed a kinetic solubility of 1 µg/mL (≈ 3.35 µM).
The compound `COc1cc(/C=C2\SC(N)=NC2=O)cc(OC)c1` registered a solubility (kinetic) of 3.8 µg/mL (≈ 14.4 µM).
For `CC(=O)c1sc(-c2ccc(F)cc2F)nc1C`, the solubility (kinetic) turned out to be 0.8 µg/mL (≈ 3.16 µM).
Compound `CC(OC(=O)C1=COCCO1)C(=O)NC1CCCCC1C` (centres undefined) registered a kinetic solubility greater than 44.6 µg/mL.
Compound `Cc1cccc(NC(=O)N2C[C@H]3C[C@@H](C2)c2cccc(=O)n2C3)c1` had a kinetic solubility greater than 48.5 µg/mL.
In the case of `O=S(=O)(c1ccc(-c2ccno2)s1)N1CCCCC1` it was 8.1 µg/mL (≈ 27.1 µM).
On to `Nc1cc(=O)[nH]c(SCc2ccccc2Cl)n1`, for which the solubility (kinetic) was found to be 6.9 µg/mL (≈ 25.8 µM).
For the compound `CC1(C)N([O-])C2=C(CCCC2)[N+]1=O`, the solubility (kinetic) was greater than 27.3 µg/mL.
The compound `O=S1(=O)CCC(=Nc2ccc(Cl)cc2)c2ccsc21` came in with a kinetic solubility of 20.3 µg/mL (≈ 65.1 µM).
`CCOc1nc(C)cc(C)c1S(=O)(=O)c1cccc(Cl)c1`: the solubility (kinetic) was 6.2 µg/mL (≈ 19 µM).
`CCc1cccc(CC)c1NC(=O)CNCc1cccs1` had a kinetic solubility of 18.7 µg/mL (≈ 61.8 µM).
As to `COc1ccccc1/C=C/C(=O)NCC(=O)N/N=C/c1ccc(C)o1`, the kinetic solubility is greater than 51.2 µg/mL.
In turn, `Cc1ccc(NC(=O)C2CC(O)CN2C(=O)OCc2ccccc2)c(C)c1` (centres undefined) returned a kinetic solubility of 37.2 µg/mL (≈ 101 µM).
In the case of `Cn1cccc1C(=O)NCCc1ccc(Cl)cc1` it was 36.1 µg/mL (≈ 137 µM); in that of `Cc1ccccc1N1CCN(Cc2ccc(Br)o2)CC1`, 4.3 µg/mL (≈ 12.8 µM); in that of `COc1ccc(C(C)NC(=O)c2ccncc2)cc1OC` (centres undefined), greater than 42.9 µg/mL.
`Oc1ccc(Br)cc1CNc1cccc2cccnc12` gave a solubility (kinetic) of 1 µg/mL (≈ 3.04 µM).
In the case of `COC(=O)C(N)Cc1ccc(OC)c([N+](=O)[O-])c1.Cl` (centres undefined) it was greater than 43.6 µg/mL; in that of `Fc1ccc(NC(=S)NCCN2CCOCC2)c(F)c1F`, greater than 47.9 µg/mL; in that of `CCCCn1c(O)c(C(C)=Nc2ccc3c(c2)CCC3)c(=O)[nH]c1=O`, less than 0.2 µg/mL.
In the case of `CC(=O)N/C(=C\c1ccccc1)C(=O)OCC(=O)NC1CCS(=O)(=O)C1` (centres undefined) it was greater than 57.1 µg/mL; in that of `COc1ccc(-c2noc(CN(C)Cc3ccccc3)n2)cc1`, 5.7 µg/mL (≈ 18.4 µM).
In the case of `Cc1nsc(N)c1C(=O)O` it was greater than 23.7 µg/mL.
`O=C(CCc1nc(-c2ccccc2F)no1)Nc1cccnc1` came in with a solubility (kinetic) greater than 46.8 µg/mL.
For `CC(C)Oc1ccc(C(=O)Nc2cccc(S(=O)(=O)N3CCCC3)c2)cc1`, the kinetic solubility turned out to be 8.5 µg/mL (≈ 21.9 µM).
In the case of `Cc1nc(-c2cc(C#N)c(=O)[nH]c2C)cs1` it was greater than 34.7 µg/mL; in that of `COc1ccc(CCNC(=O)/C=C/C(=O)O)cc1OC`, greater than 41.9 µg/mL; in that of `CCCC(=O)OCC(=O)NCc1ccc(Cl)cc1`, 35.8 µg/mL (≈ 133 µM).
In the case of `CCc1ccc(C(=O)Nc2ccc3nc(C)ccc3c2)cc1` it was less than 0.3 µg/mL.
As for `Cc1cc(CNC(=O)c2ccc(C)c([N+](=O)[O-])c2)c2ccccc2n1`, the solubility (kinetic) amounted to 20.1 µg/mL (≈ 59.9 µM).
As for `O=C(c1ccco1)N1CCN(Cc2nc(Cc3ccccc3)no2)CC1`, the kinetic solubility was found to be 37.7 µg/mL (≈ 107 µM).
In the case of `NC(=O)CN1C(=O)C(=O)N(Cc2cccc(Cl)c2)C1=O` it was greater than 44.4 µg/mL; in that of `O=S(=O)(CC(c1ccccc1)N1CCCCC1)c1ccc(Cl)cc1` (centres undefined), 4.2 µg/mL (≈ 11.5 µM).
As for `CCC(Oc1ccccc1)C(=O)NC1CCSC1=O` (centres undefined), the solubility (kinetic) was greater than 41.9 µg/mL.
In the case of `COC1=C(N)C(=O)c2nc(-c3nc(C(=O)O)c(C)c(-c4ccc(OC)c(OC)c4O)c3N)ccc2C1=O` it was 74.9 µg/mL (≈ 148 µM); in that of `O=C(O)/C=C/C(=O)Nc1c(F)cccc1F`, 27.1 µg/mL (≈ 119 µM); in that of `O=C(NCCO)C(=O)c1c(-c2ccccc2)cc2ccccn12`, 38.2 µg/mL (≈ 124 µM).
With `C/C(=C\c1ccc2c(c1)OCO2)C(=O)c1c(C)cc(C)[nH]c1=O`, the kinetic solubility was greater than 46.7 µg/mL.
`CCOP(=O)(OCC)/C(=N/OC(=O)c1cccc([N+](=O)[O-])c1)C(N)=O` returned a kinetic solubility of 55 µg/mL (≈ 147 µM).
In turn, `O=S(=O)(c1ccc(Cl)nc1)N1CCCC1` displayed a solubility (kinetic) greater than 37 µg/mL.
For `O=C(CCc1ccncc1)N1CCCC(Nc2ccc(F)c(F)c2)C1` (centres undefined) the value was 43.9 µg/mL (≈ 127 µM).
Compound `Cn1c(/C=C/c2ccc(Br)cc2)nc2ccccc2c1=O` registered a solubility (kinetic) of less than 0.4 µg/mL.
Turning to `O=C(O)c1csc(-c2ccccc2)n1`, the solubility (kinetic) was 28.2 µg/mL (≈ 137 µM).
`O=S(=O)(Nc1cc(Cl)cc(Cl)c1)N1CCOCC1` displayed a kinetic solubility greater than 46.7 µg/mL.
In the case of `CC(=O)c1ccc(OCCOc2ccc([N+](=O)[O-])cc2)cc1` it was 3.7 µg/mL (≈ 12.3 µM).
